Results reported in US20180028982A1, “CONTAINER WITH BIOFILM FORMATION-INHIBITING MICROORGANISMS IMMOBILIZED THEREIN AND MEMBRANE WATER TREATMENT APPARATUS USING THE SAME” (SNU R&DB FOUNDATION, priority 2010, published 2018).

System: AI-2 quorum sensing mechanism
Experiment: Inhibition of AI-2 quorum sensing, bioluminescence of Vibrio harveyi BB170 after reaction with Vibrio harveyi BB152 samples
Format: cell-based
Settings: farnesol 800 μM on Vibrio harveyi BB152, reaction for 90 minutes, versus no farnesol (Control)
Description: The effect of inhibition of quorum sensing for certain microorganisms (bacteria) for water treatment by farnesol secreted by the biofilm formation-inhibiting microorganisms, i.e., Candida albicans is thought to be attributed to the inhibition of quorum sensing mechanism using AI-2 signal molecules, which was indirectly assessed by means of Vibrio harveyi BB152, a bacteria producing only AI-2, and Vibrio harveyi BB170, bacteria allowing bioluminescence by specifically accepting only AI-2. Particularly, Vibrio harveyi BB152 producing only AI-2 signal molecules was inoculated in an AB medium (Autoinducer Bioassay medium, Tega et al., 2011) and cultivated to a certain degree of optical density (O.D.600) of 0.1-0.3. Farnesol was injected to attain final concentration of 800 μM (and no farnesol was injected for its comparison), each sample was taken after reaction for 90 minutes, and the each sample was reacted with Vibrio harveyi BB170 to measure bioluminescence. As a result, the bioluminescence of Vibrio harveyi BB170 was decreased by about 42 percents for the case of […] (designated as “Control”) when compared to the case of injecting the farnesol (see FIG. 18).

CC(C)=CCCC(C)=CCCC(C)=CCO [Farnesol, farnesol]
decrease of bioluminescence of Vibrio harveyi BB170: about 42 percents
